The term melting point denotes the temperature, or range, at which the solid turns liquid.

The test system of data set [1] is SMN2 minigene mRNA (SMN2-A minigene) in HEK293H cells. Description: SMN2 minigene mRNA splicing RT-qPCR assay in cultured cells. In kind it is cell-based, human. To be noted: Homo sapiens, HEK293-H; concentration increasing full length SMN2 mRNA 1.5-fold relative to vehicle-treated cells; HEK293H cells with SMN2-A minigene, 24 hours, 7-point concentration data; read-out: EC1.5x for production of full length SMN2 mRNA. In outline: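 EC1.5× values derive from a 24 h treatment of SMN2-A minigene HEK293H cells and GAPDH-normalized RT-qPCR of exon 7-included minigene mRNA relative to vehicle-treated cells.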
(In general: Quantitative PCR measures a nucleic acid by following its amplification.)

For data set [2], the system named is Smn protein in SMA patient fibroblast cells (GM03813). The data set can be described thus: Smn protein assay in cultured cells (SMN HTRF). Particulars: SMA patient fibroblast cells, 48 hours; for EC1.5x for Smn protein expression: 7-point concentration curve, SMN HTRF, concentration producing 1.5 times Smn protein vs DMSO vehicle control; for maximum fold (Fold) increase of Smn protein: 7-point concentration data, fold relative to vehicle control. Type of data set: cell-based, human. Put shortly:
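Cells were cultured 72 h, seeded at 5,000/well and dosed with seven concentrations (3.16-fold apart) for 48 h. HTRF on lysates, read at 665 and 620 nm, gave blank-corrected ΔF values relative to DMSO. Potency is reported as EC1.5×, efficacy as maximal fold Smn increase.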
A general note: Time-resolved FRET reads energy transfer from a long-lived donor to a nearby acceptor.

`COc1ccc(-c2cc(=O)n3cc(C4=CCN(CCO)CC4)cc(C)c3n2)cc1OC` [Compound 346, 2-(3,4-dimethoxyphenyl)-7-[1-(2-hydroxyethyl)-1,2,3,6-tetrahydropyridin-4-yl]-9-methyl-4H-pyrido[1,2-a]pyrimidin-4-one] gave a melting point of 169 to 179 °C. Further, in data set [1], the EC (1.5-fold increase) was less than 0.1 µM. In data set [2], the “EC1.5x for Smn protein expression” value is listed as “**** (an EC1.5x≤0.3 μM is indicated by four stars (****))”; the “maximum fold (Fold) increase of Smn protein” value (from here on “maximum fold (Fold) increase”) is “**** (a fold increase between >1.5 and ≤1.65 is indicated by four stars (****))”.
`Cc1nc2cc(-c3cc(=O)n4cc(N5CCC(N(C)C)CC5)ccc4n3)ccc2s1` [Compound 347, 7-[4-(dimethylamino)piperidin-1-yl]-2-(2-methyl-1,3-benzothiazol-5-yl)-4H-pyrido[1,2-a]pyrimidin-4-one] displayed a melting point of 218 to 220 °C. Moreover, in data set [1], the EC (1.5-fold increase) was less than 0.1 µM. For the same molecule, in data set [2], the “maximum fold (Fold) increase” value was “*** (a fold increase between >1.35 and ≤1.5 is indicated by three stars (***))”.
For `Cc1nc2cc(-c3cc(=O)n4cc(N5CCC(N)CC5)ccc4n3)ccc2s1` [Compound 348, 7-(4-aminopiperidin-1-yl)-2-(2-methyl-1,3-benzothiazol-5-yl)-4H-pyrido[1,2-a]pyrimidin-4-one], the melting point lay in the range of 190 to 192 °C. Further, the EC (1.5-fold increase) in data set [1] fell in the range of 0.1 to 0.3 µM. Moreover, in data set [2], the “maximum fold (Fold) increase” value was “** (a fold increase between >1.2 and ≤1.35 is indicated by two stars (**))”.
`Cc1cn2nc(-c3cc(=O)n4cc(C5=CCN(C)CC5)ccc4n3)cc2c(C)n1` [Compound 350, 2-(4,6-dimethylpyrazolo[1,5-a]pyrazin-2-yl)-7-(1-methyl-1,2,3,6-tetrahydropyridin-4-yl)-4H-pyrido[1,2-a]pyrimidin-4-one] displayed a melting point of 193 to 197 °C. In data set [1], the EC (1.5-fold increase) is less than 0.1 µM. Also, in data set [2], the “EC1.5x for Smn protein expression” value is given as “**** (an EC1.5x≤0.3 μM is indicated by four stars (****))” and the “maximum fold (Fold) increase” value is “***** (a fold increase >1.65 is indicated by five stars (*****))”.
In the same order, the values of `CCN1CC=C(c2ccc3nc(-c4cc5c(C)nc(C)cn5n4)cc(=O)n3c2)CC1` [Compound 351, 2-(4,6-dimethylpyrazolo[1,5-a]pyrazin-2-yl)-7-(1-ethyl-1,2,3,6-tetrahydropyridin-4-yl)-4H-pyrido[1,2-a]pyrimidin-4-one] are 202 to 204 °C, less than 0.1 µM, “**** (an EC1.5x≤0.3 μM is indicated by four stars (****))” and “***** (a fold increase >1.65 is indicated by five stars (*****))”.
In turn, `CCCN1CC=C(c2ccc3nc(-c4cc5c(C)nc(C)cn5n4)cc(=O)n3c2)CC1` [Compound 352, 2-(4,6-dimethylpyrazolo[1,5-a]pyrazin-2-yl)-7-(1-propyl-1,2,3,6-tetrahydropyridin-4-yl)-4H-pyrido[1,2-a]pyrimidin-4-one] came in with a melting point of 191 to 193 °C. Moreover, the EC (1.5-fold increase) in data set [1] is less than 0.1 µM. Moreover, in data set [2], the “EC1.5x for Smn protein expression” value is on record as “**** (an EC1.5x≤0.3 μM is indicated by four stars (****))”; the “maximum fold (Fold) increase” value was “**** (a fold increase between >1.5 and ≤1.65 is indicated by four stars (****))”.
In turn, `Cc1cn2nc(-c3cc(=O)n4cc(C5=CCN(C(C)C)CC5)ccc4n3)cc2c(C)n1` [Compound 355, 2-(4,6-dimethylpyrazolo[1,5-a]pyrazin-2-yl)-7-[1-(propan-2-yl)-1,2,3,6-tetrahydropyridin-4-yl]-4H-pyrido[1,2-a]pyrimidin-4-one] yielded a melting point of 186 to 189 °C. In addition, in data set [1], the EC (1.5-fold increase) is less than 0.1 µM. Further, in data set [2], the “EC1.5x for Smn protein expression” value was “*** (an EC1.5× between >0.3 μM and ≤1 μM is indicated by three stars (***))”; the “maximum fold (Fold) increase” value is “**** (a fold increase between >1.5 and ≤1.65 is indicated by four stars (****))”.
`Cc1cn2nc(-c3cc(=O)n4cc(C5=CCN(C6CCC6)CC5)ccc4n3)cc2c(C)n1` [Compound 356, 7-(1-cyclobutyl-1,2,3,6-tetrahydropyridin-4-yl)-2-(4,6-dimethylpyrazolo[1,5-a]pyrazin-2-yl)-4H-pyrido[1,2-a]pyrimidin-4-one] gave a melting point of 191 to 193 °C. Besides, in data set [1], the EC (1.5-fold increase) was less than 0.1 µM. Further, in data set [2], the “EC1.5x for Smn protein expression” value was “*** (an EC1.5× between >0.3 μM and ≤1 μM is indicated by three stars (***))”; the “maximum fold (Fold) increase” value is “**** (a fold increase between >1.5 and ≤1.65 is indicated by four stars (****))”.
In the case of `COc1ccc(-c2cc(=O)n3cc(N4CCNCC4)c(C)cc3n2)cc1OC` [Compound 360, 2-(3,4-dimethoxyphenyl)-8-methyl-7-(piperazin-1-yl)-4H-pyrido[1,2-a]pyrimidin-4-one], the melting point was in the range of 161 to 169 °C. Moreover, the EC (1.5-fold increase) in data set [1] lay in the range of 1 to 3 µM. Besides, the “maximum fold (Fold) increase” value in data set [2] is listed as “* (A maximum fold increase of ≤1.2 is indicated by one star (*))”.
Regarding `COc1ccc(-c2cc(=O)n3cc(C4=CCN(C5CCC5)CC4)ccc3n2)cc1OC` [Compound 362, 7-(1-cyclobutyl-1,2,3,6-tetrahydropyridin-4-yl)-2-(3,4-dimethoxyphenyl)-4H-pyrido[1,2-a]pyrimidin-4-one], the melting point lay in the range of 152 to 154 °C. In addition, the EC (1.5-fold increase) in data set [1] was 0.3 to 1 µM. For the same molecule, the “maximum fold (Fold) increase” value in data set [2] was “*** (a fold increase between >1.35 and ≤1.5 is indicated by three stars (***))”.
In the case of `COc1ccc(-c2cc(=O)n3cc(C4=CCN(C(C)C)CC4)ccc3n2)cc1OC` [Compound 363, 2-(3,4-dimethoxyphenyl)-7-[1-(propan-2-yl)-1,2,3,6-tetrahydropyridin-4-yl]-4H-pyrido[1,2-a]pyrimidin-4-one], the melting point lay in the range of 116 to 118 °C. In addition, the EC (1.5-fold increase) in data set [1] lay within 0.3 to 1 µM. Also, in data set [2], the “maximum fold (Fold) increase” value is “** (a fold increase between >1.2 and ≤1.35 is indicated by two stars (**))”.
`COc1ccc(-c2cc(=O)n3cc(C4=CCN(C5COC5)CC4)ccc3n2)cc1OC` [Compound 364, 2-(3,4-dimethoxyphenyl)-7-[1-(oxetan-3-yl)-1,2,3,6-tetrahydropyridin-4-yl]-4H-pyrido[1,2-a]pyrimidin-4-one] registered a melting point of 178 to 180 °C. Moreover, in data set [1], the EC (1.5-fold increase) was 1 to 3 µM. The “maximum fold (Fold) increase” value in data set [2] is given as “* (A maximum fold increase of ≤1.2 is indicated by one star (*))”.
Consider `CCCN1CC=C(c2ccc3nc(-c4ccc(OC)c(OC)c4)cc(=O)n3c2)CC1` [Compound 365, 2-(3,4-dimethoxyphenyl)-7-(1-propyl-1,2,3,6-tetrahydropyridin-4-yl)-4H-pyrido[1,2-a]pyrimidin-4-one], for which the melting point was in the range of 158 to 160 °C. The EC (1.5-fold increase) in data set [1] lay in the range of 0.1 to 0.3 µM. In data set [2], the “maximum fold (Fold) increase” value is “*** (a fold increase between >1.35 and ≤1.5 is indicated by three stars (***))”.
In turn, `CNC1CC=C(c2ccc3nc(-c4ccc(OC)c(OC)c4)cc(=O)n3c2)CC1` (stereo not shown) [Compound 366, 2-(3,4-dimethoxyphenyl)-7-[4-(methylamino)cyclohex-1-en-1-yl]-4H-pyrido[1,2-a]pyrimidin-4-one] returned a melting point of 232 to 235 °C. For the same molecule, in data set [1], the EC (1.5-fold increase) is less than 0.1 µM. Further, in data set [2], the “EC1.5x for Smn protein expression” value was “**** (an EC1.5x≤0.3 μM is indicated by four stars (****))”; the “maximum fold (Fold) increase” value was “**** (a fold increase between >1.5 and ≤1.65 is indicated by four stars (****))”.
`COc1ccc(-c2cc(=O)n3cc(C4=CCC(N(C)C)CC4)ccc3n2)cc1OC` (stereo not shown) [Compound 367, 2-(3,4-dimethoxyphenyl)-7-[4-(dimethylamino)cyclohex-1-en-1-yl]-4H-pyrido[1,2-a]pyrimidin-4-one] displayed a melting point of 162 to 164 °C. In data set [1], the EC (1.5-fold increase) was less than 0.1 µM. Further, in data set [2], the “EC1.5x for Smn protein expression” value was “* (An EC1.5× for Smn protein expression between >3 μM and ≤10 μM is indicated by one star (*))”; the “maximum fold (Fold) increase” value was “*** (a fold increase between >1.35 and ≤1.5 is indicated by three stars (***))”.
`CCN(C)C1CC=C(c2ccc3nc(-c4ccc(OC)c(OC)c4)cc(=O)n3c2)CC1` (stereo not shown) [Compound 368, 2-(3,4-dimethoxyphenyl)-7-{4-[ethyl(methyl)amino]cyclohex-1-en-1-yl}-4H-pyrido[1,2-a]pyrimidin-4-one] came in with a melting point of 132 to 134 °C. Besides, the EC (1.5-fold increase) in data set [1] is less than 0.1 µM. In addition, in data set [2], the “EC1.5x for Smn protein expression” value is “*** (an EC1.5× between >0.3 μM and ≤1 μM is indicated by three stars (***))”; the “maximum fold (Fold) increase” value is “**** (a fold increase between >1.5 and ≤1.65 is indicated by four stars (****))”.
Regarding `CCCN(C)C1CC=C(c2ccc3nc(-c4ccc(OC)c(OC)c4)cc(=O)n3c2)CC1` (stereo not shown) [Compound 369, 2-(3,4-dimethoxyphenyl)-7-{4-[methyl(propyl)amino]cyclohex-1-en-1-yl}-4H-pyrido[1,2-a]pyrimidin-4-one], the melting point fell in the range of 116 to 118 °C. Further, the EC (1.5-fold increase) in data set [1] is less than 0.1 µM. Further, in data set [2], the “EC1.5x for Smn protein expression” value was “** (an EC1.5× between >1 μM and ≤3 μM is indicated by two stars (**))”; the “maximum fold (Fold) increase” value is “*** (a fold increase between >1.35 and ≤1.5 is indicated by three stars (***))”.

The values above are taken from patent US11753407B2, “Compounds for treating spinal muscular atrophy” (PTC Therapeutics, Inc., priority 2012, dated 2023).
